Laboratory results from ChEMBL document CHEMBL4177579, “Eudesmane sesquiterpenes from Chinese liverwort are substrates of Cdrs and display antifungal activity by targeting Erg6 and Erg11 of Candida albicans” (Bioorg Med Chem, 2017).
Converted amounts (≈) assume the structure as drawn.

Assays:
Candida albicans [1] = assay: Antifungal activity against CDR1 and CDR2 deficient Candida albicans DSY654 incubated for 48 hrs by alamar blue assay; type: functional; settings: DSY654, 48 h
Candida albicans [2] = assay: Antifungal activity against CDR1 deficient Candida albicans DSY448 incubated for 48 hrs by alamar blue assay; type: functional; settings: DSY448, 48 h
Candida albicans [3] = assay: Antifungal activity against Candida albicans SC5314 incubated for 48 hrs by alamar blue assay; type: functional; settings: SC5314, 48 h
Candida albicans [4] = assay: Antifungal activity against CDR2 deficient Candida albicans DSY653 incubated for 48 hrs by alamar blue assay; type: functional; settings: DSY653, 48 h
Candida albicans [5] = assay: Antifungal activity against MDR1 deficient Candida albicans DSY465 incubated for 48 hrs by alamar blue assay; type: functional; settings: DSY465, 48 h
Candida albicans [6] = assay: Drug accumulation in Candida albicans SC5314 at 16 ug/ml incubated for 10 hrs in presence of 16 ug/ml CDR inhibitor RD by HPLC method relative to untreated control; type: ADME, organism-based; settings: in vivo
Candida albicans [7] = assay: Inhibition of ERG6/ERG11 in CDR1 and CDR2 deficient Candida albicans DSY654 assessed as induction of alteration in sterol composition by measuring fecosterol level at 16 ug/ml incubated for 10 hrs by GC-MS method (reference value: 8.36 +/- 0.3%); design: scale not given: the % may be the effect or the level left
Candida albicans [8] = assay: Inhibition of the yeast-to-hyphal transition in CDR1 and CDR2 deficient Candida albicans DSY654 incubated for 5 days grown in solid SD medium by microphotography; type: functional, organism-based
Candida albicans [9] = assay: Inhibition of ERG6/ERG11 in CDR1 and CDR2 deficient Candida albicans DSY654 assessed as induction of alteration in sterol composition by measuring lanosterol level at 16 ug/ml incubated for 10 hrs by GC-MS method (reference value: 1.63 +/- 0.28%); design: scale not given: the % may be the effect or the level left
Candida albicans [10] = assay: Drug accumulation in CDR1 and CDR2 deficient Candida albicans DSY654 at 16 ug/ml incubated for 10 hrs by HPLC method relative to wild type Candida albicans SC5314; type: ADME, organism-based; settings: in vivo
Candida albicans [11] = assay: Inhibition of ERG6/ERG11 in CDR1 and CDR2 deficient Candida albicans DSY654 assessed as feedback mechanism based up-regulation of ERG11 mRNA expression at 16 ug/ml incubated for 10 hrs by qPCR method relative to untreated control
Candida albicans [12] = assay: Inhibition of ERG6/ERG11 in CDR1 and CDR2 deficient Candida albicans DSY654 assessed as induction of alteration in sterol composition by measuring ergosterol level at 16 ug/ml incubated for 10 hrs by GC-MS method (reference value: 55.60 +/- 0.29%); design: scale not given: the % may be the effect or the level left
Candida albicans [13] = assay: Inhibition of ERG6/ERG11 in CDR1 and CDR2 deficient Candida albicans DSY654 assessed as induction of alteration in sterol composition by measuring zymosterol level at 16 ug/ml incubated for 10 hrs by GC-MS method (reference value: 2.78 +/- 0.53%); design: scale not given: the % may be the effect or the level left
Candida albicans [14] = assay: Inhibition of the yeast-to-hyphal transition in CDR1 and CDR2 deficient Candida albicans DSY654 incubated for 5 days grown in liquid RPMI 1640 medium by microphotography; type: functional, organism-based
Candida albicans [15] = assay: Inhibition of ERG6/ERG11 in CDR1 and CDR2 deficient Candida albicans DSY654 assessed as feedback mechanism based up-regulation of ERG6 mRNA expression at 16 ug/ml incubated for 10 hrs by qPCR method relative to untreated control

| SMILES | MIC80 (Candida albicans [1]) | MIC80 (Candida albicans [2]) | MIC80 (Candida albicans [3]) | MIC80 (Candida albicans [4]) | MIC80 (Candida albicans [5]) | fold change (FC) (Candida albicans [6]) | Activity (Candida albicans [7]) | inhibition (Candida albicans [8]) | Activity (Candida albicans [9]) | fold change (FC) (Candida albicans [10]) | fold change (FC) (Candida albicans [11]) | Activity (Candida albicans [12]) | Activity (Candida albicans [13]) | inhibition (Candida albicans [14]) | fold change (FC) (Candida albicans [15]) |
| --- | --- | --- | --- | --- | --- | --- | --- | --- | --- | --- | --- | --- | --- | --- | --- |
| C=C(CO)[C@H]1CC[C@]2(C)CCCC(=C)[C@H]2[C@H]1O | 64 µg/mL (≈ 271 µM) | > 128 µg/mL | > 128 µg/mL | > 128 µg/mL | > 128 µg/mL | – | – | – | – | – | – | – | – | – | – |
| C=C1CCC[C@@]2(C)C[C@@H]3OC(=O)[C@](CO)(OCC)[C@@H]3C[C@H]12 | > 128 µg/mL | > 128 µg/mL | > 128 µg/mL | > 128 µg/mL | > 128 µg/mL | – | – | – | – | – | – | – | – | – | – |
| C=C1CCC[C@@]2(C)C[C@@H]3OC(=O)[C@@](C)(O)[C@@H]3C[C@H]12 | 32 µg/mL (≈ 128 µM) | > 128 µg/mL | > 128 µg/mL | > 128 µg/mL | > 128 µg/mL | – | – | – | – | – | – | – | – | – | – |
| C=C1CCC[C@@]2(C)C[C@@H]3OC(=O)C(=C)[C@@H]3C[C@H]12 | 16 µg/mL (≈ 68.9 µM) | > 128 µg/mL | > 128 µg/mL | > 128 µg/mL | > 128 µg/mL | 10.4 | 6.16% | Dose-dependent effect | 17.2% | 4.95 | 2.7 | 33.7% | 10.8% | Dose-dependent effect | 9.3 |
| C=C1CCC[C@@]2(C)C[C@H](O)[C@H](C(=C)C)C[C@H]12 | 64 µg/mL (≈ 290 µM) | > 128 µg/mL | > 128 µg/mL | > 128 µg/mL | > 128 µg/mL | – | – | – | – | – | – | – | – | – | – |
| C=C1CCC[C@@]2(C)C[C@@H]3OC(=O)[C@@H](C)[C@@H]3C[C@H]12 | > 128 µg/mL | > 128 µg/mL | > 128 µg/mL | > 128 µg/mL | > 128 µg/mL | – | – | – | – | – | – | – | – | – | – |
| CC1=CCC[C@@]2(C)C[C@@H]3OC(=O)[C@H](C)[C@@H]3C[C@H]12 | > 128 µg/mL | > 128 µg/mL | > 128 µg/mL | > 128 µg/mL | > 128 µg/mL | – | – | – | – | – | – | – | – | – | – |
| C=C(C)[C@@H]1C[C@@]2(C(C)=O)C[C@@H](O)C[C@@]2(C)C[C@@H]1O | > 128 µg/mL | > 128 µg/mL | > 128 µg/mL | > 128 µg/mL | > 128 µg/mL | – | – | – | – | – | – | – | – | – | – |
| C=C1CCC[C@@]2(C)C[C@@H]3OC(=O)[C@]4(CO4)[C@@H]3C[C@H]12 | > 128 µg/mL | > 128 µg/mL | > 128 µg/mL | > 128 µg/mL | > 128 µg/mL | – | – | – | – | – | – | – | – | – | – |
| CC1(C)C[C@H](O)C[C@@]2(C)OC(=O)C=C12 [LOLIOLIDE] | > 128 µg/mL | > 128 µg/mL | > 128 µg/mL | > 128 µg/mL | > 128 µg/mL | – | – | – | – | – | – | – | – | – | – |
| CC1=CC(=O)C[C@@]2(C)CC[C@](O)(C(C)C)C[C@H]12 | > 128 µg/mL | > 128 µg/mL | > 128 µg/mL | > 128 µg/mL | > 128 µg/mL | – | – | – | – | – | – | – | – | – | – |
| C=C1CCC[C@@]2(C)C[C@@]3(O)OC(=O)C(C)=C3C[C@H]12 | 64 µg/mL (≈ 258 µM) | > 128 µg/mL | > 128 µg/mL | > 128 µg/mL | > 128 µg/mL | – | – | – | – | – | – | – | – | – | – |
